According to article PMC11959706, “Allatostatin-C signaling in the crab Carcinus maenas is implicated in the ecdysis program” (The Journal of Experimental Biology, 2025):
Values joined by “and” are separate entries in the source; they are usually repeats but may differ in a detail not shown here. Equal values may be shown once. Bridge positions count the residues as written; N and C are the ends. Ends that are not written are not given here.

Key:
AST-CRd (TR71151) = assay: Aequorin luminescence receptor assay, CHO-K1-Aeq-Gα16 cells transiently expressing AST-CRd; type: cell-based, Carcinus maenas; details: for Activation of AST-CRd at saturating doses: 10, 1 µmol l^−1 peptide, quadruplicate
Excerpt: The transcriptome of neural tissue of C. maenas, which has been previously assembled ([Oliphant et al., 2018]), identified four putative AST-C receptor candidates: TR71151a-d ([Oliphant et al., 2018]). These were chemically synthesized with a modified 5′ Kozak sequence (GAATTCGCCACC) and cloned in frame into a pcDNA3.1(+) plasmid vector (Genscript, Piscataway, NJ, USA). Separate aliquots of OneShot TOP10® E. coli cells (Invitrogen, Paisley, UK) were transformed with the plasmids and grown on LB plates containing 100 µg ml^−1 ampicillin overnight at 37°C. Positive clones were cultured overnight in LB broth with 100 µg ml^−1 ampicillin at 37°C and plasmids extracted using a Qiagen Plasmid Midiprep kit according to the manufacturer's instructions. Purified plasmids were re-sequenced (MWG Eurofins, Ebersberg, Germany) and analyzed using Geneious 9.1.8 ([Kearse et al., 2012]).
Chinese hamster ovary (CHO-K1) cells containing stably expressed apoaequorin (Perkin Elmer, Boston, MA) and either Gα16 or Gq subunit (control cells) were cultured in Dulbecco's Modified Eagle Medium (DMEM) F-12 Nutrient Mixture Glutamax (Gibco®) supplemented with 10% fetal bovine serum (Gibco®). Cells were maintained in vented T75 flasks at 37°C in 5% CO2. Cells grown in a monolayer to approximately 60% confluency were transfected with pcDNA 3.1 constructs using FugeneHD® (Promega) according to the manufacturer's recommendations. Transfection medium was prepared by combining 800 µl Opti-MEM® (Gibco) with 10 µg vector and the cells further incubated overnight. Cells were detached from the culture flask by incubating for 10 min in 5 ml 0.2% EDTA in PBS, washed in 10 ml clear DMEM–F-12 containing L-glutamine and 15 mmol l^−1 HEPES, centrifuged (for 5 min at 260 g) and resuspended at a concentration of 5×10^6 cells ml^−1 in 0.2 µm filtered BSA medium (DMEM–F-12 containing L-glutamine, 15 mmol l^−1 HEPES and 0.1% BSA). Coelenterazine h (Invitrogen, Paisley, UK) was added to give a concentration of 5 µmol l^−1, and the cells incubated in the dark at room temperature with gentle rocking. Before the assay, cells were further diluted (10-fold) and incubated for 60 min before use. Dried aliquots of peptides were reconstituted in BSA medium, and 50 µl added in quadruplicate to a white 96-well plate (Optiplate®, Perkin Elmer). Cell suspensions were gently stirred and injected (50 µl per well) using a Mithras LB 940 microplate reader (Berthold Technologies, Bad Wildbad, Germany) and light emission (Ca^2+ response recorded for 30 s). Cells were then lysed by injection of 50 µl per well 0.3% Triton-X in BSA medium, and light emission recorded for a further 10 s to measure total Ca^2+ response. BSA medium was used for blank measurements (six replicates per plate) and transfection with empty vectors was used for negative controls. Data were analyzed using Mikrowin 2010 v5 (Mikrotek Laborsysteme, Overath, Germany) and SigmaPlot v15 (Systat Software, Grafiti, Slough, UK).

[1] = tested on: semi-isolated heart preparations; assay: Semi-isolated heart preparation bioassay; design: species or system Carcinus maenas; details: 10^−6 mol l^−1 in saline, 20°C, recorded about 2 min; four preparations
Excerpt: To determine possible myotropic and/or myoinhbitory activity of AST-C, AST-CC and AST-CCC, inter-molt crabs (∼65 mm carapace width) were ice-anaesthetized and rapidly decerebrated before removing all limbs and the dorsal carapace to expose the heart and pericardial cavity. The preparation was then fitted into a bowl lined with tissue, to provide a stable saline-flooded environment. The heart was connected to a force transducer (MLT0210/A) via a micro-fishing hook (size 28) and fine nylon (0.08 mm) monofilament. Connection to a PC with Chart 4.0 software was via a Bridge Pod (ML301) and Powerlab 4/20 (AD Instruments, Castle Hill, NSW, Australia). Transducer gain was set at maximum sensitivity (200 μV). Heart preparations were initially perfused with Carcinus physiological saline ([Saver et al., 1999]) at room temperature (20°C). Once a stable output was achieved, hearts were then perfused by sequentially adding approximately 2 ml saline containing AST-C, AST-CC and AST-CCC (GenScript Biotech, Piscataway, NJ, USA), and finally adding CCAP as a positive control (all peptides were at a concentration of 10^−6 mol l^−1 in saline). Each peptide addition was followed by extensive washout with saline, recording heart rate and beat amplitude for approximately 2 min after application of each peptide.

AST-CR(d) = assay: Aequorin luminescence receptor assay, AST-CR(d) construct in control cells expressing a Gq subunit; type: cell-based, Carcinus maenas; details: CHO-K1-Aeq control cells expressing a Gq subunit, transfected with AST-CR(d) construct
Protocol: Chinese hamster ovary (CHO-K1) cells containing stably expressed apoaequorin (Perkin Elmer, Boston, MA) and either Gα16 or Gq subunit (control cells) were cultured in Dulbecco's Modified Eagle Medium (DMEM) F-12 Nutrient Mixture Glutamax (Gibco®) supplemented with 10% fetal bovine serum (Gibco®). Cells were maintained in vented T75 flasks at 37°C in 5% CO2. Cells grown in a monolayer to approximately 60% confluency were transfected with pcDNA 3.1 constructs using FugeneHD® (Promega) according to the manufacturer's recommendations. Transfection medium was prepared by combining 800 µl Opti-MEM® (Gibco) with 10 µg vector and the cells further incubated overnight. […] Cell suspensions were gently stirred and injected (50 µl per well) using a Mithras LB 940 microplate reader (Berthold Technologies, Bad Wildbad, Germany) and light emission (Ca^2+ response recorded for 30 s). Cells were then lysed by injection of 50 µl per well 0.3% Triton-X in BSA medium, and light emission recorded for a further 10 s to measure total Ca^2+ response. […] Data were analyzed using Mikrowin 2010 v5 (Mikrotek Laborsysteme, Overath, Germany) and SigmaPlot v15 (Systat Software, Grafiti, Slough, UK).

Y-organs = assay: Y-organ in vitro bioassay of ecdysteroid synthesis (ecdysteroid RIA); type: cell-based, Carcinus maenas; details: 100 nmol l^−1, 24 h incubation; N=3–6
Protocol: To determine the possible activity of AST-C and/or AST-CC on ecdysteroid synthesis, Y-organs (YOs) were dissected from ice-anaesthetized crabs and used in the in vitro bioassay as detailed previously ([Webster, 1986]). Following 24 h incubations, culture medium was aspirated and snap frozen in liquid nitrogen prior to ecdysteroid RIA. YOs were sonicated in PBS, centrifuged (13,000 g for 5 min at room temperature) and assayed for protein concentration using a BCA protein kit (EMD Millipore, Burlington MA, USA). Protein concentrations (BSA standards) were used to normalize ecdysteroid synthesis between YO pairs.
Ecdysteroid RIAs were performed on 20 µl aliquots of culture medium using the following conditions: 100 μl 1:2000 anti-ecdysteroid serum HB-2E (a kind gift from R. D Watson, Alabama University), 100 µl H^−3 Ponasterone A [24, 25, 26, 27-3H (N), 3.5 TBq mmol^−1 (American Radiochemical Company, St Louis, MO, USA)] at 28,000 dpm per tube. 25-Deoxyecdysone (a kind gift from Prof. R. Lafont, Sorbonne University, Paris) was used as a standard (range 2500–19.5 pg per tube), and unknowns and standards were assayed in triplicate. Bound was separated from free using 50 µl per tube immobilized donkey anti-rabbit nitrocellulose suspension (Sac-Cel), as detailed for the AST-C RIA. Pellets were resuspended in 600 µl Hi-Safe 3 (Perkin Elmer) prior to counting. Using this RIA, both ecdysone and 25-deoxyecdysone (the two ecdysteroids synthesized by C. maenas YOs) were equally recognized.

Substance	Activation of AST-CRd at saturating doses (AST-CRd (TR71151))	ED50, luminescence response (AST-CRd (TR71151); CHO-K1-Aeq-Gα16 cells transiently expressing AST-CRd, assayed in quadruplicate, two independent experiments, approximate values)	Effect on heartbeat amplitude [1]	Effect on heartbeat frequency (heart rate) [1]	Luminescent response in control cells (AST-CR(d))	Effect on ecdysteroid synthesis by Y-organs (Y-organs)
GNGDGRLYWRCYFNAVSCF (disulfide 11-18 (inferred)) [AST-CC, C. maenas AST-C family neuropeptide; synthetic (GenScript)]	equally active	2 nM and 2 to 6 nM	entirely unaffected	entirely unaffected	no luminescent response	entirely without effect
pQIRYHQCYFNPISCF (disulfide) [AST-C, allatostatin-C, C. maenas AST-C family neuropeptide with C-terminal PISCF motif; synthetic (GenScript)]	equally active		entirely unaffected	entirely unaffected	no luminescent response	entirely without effect
